Values after ≈ are worked out from the molar mass of the structure shown. Where a SMILES comes first, the peptide text is derived from it.
What was measured:
[1] = test system: Candida albicans, ATCC 90028; format: cell-based
Experimental: The antimicrobial properties of synthesized peptides against bacteria and fungi were evaluated using minimum inhibitory concentration (MIC) and minimum bactericidal/fungicidal concentration (MBC/MFC) tests (Wiegand et al. 2008). The tested species include Streptococcus mutans, UA159; Lacticaseibacillus casei, American Type Culture Collection (ATCC) 334; and Candida albicans, ATCC 90028. A 10 μL aliquot of bacterial culture (10^6 CFU/mL) in brain heart infusion (BHI) broth was added to 100 μL serial two-fold dilutions of experimental solutions. The optical density values at 660 nm were measured after 18 h of incubation. To determine the MBC, 10 μL of bacterial culture was taken from the well of MIC, and wells before and after the well of MIC, and transferred to blood agar. The test protocol for fungi was similar: the culture medium was a Roswell Park Memorial Institute (RPMI) 1640 Medium, the absorbance was measured at 520 nm, and Sabouraud dextrose agar was used for the MFC test. Chlorhexidine and medium were used as the positive and negative controls.

[2] = test system: Actinobacillus actinomycetemcomitans ATCC 29523; format: cell-based
Experimental: (§1) Common oral pathogenic bacterial strains were selected for this study. Streptococcus mutans ATCC 35668, Streptococcus sobrinus ATCC 33478, Lactobacillus acidophilus ATCC 9224, Lactobacillus rhamnosus ATCC10863, Actinomyces naeslundii ATCC 12104, Enterococcus faecalis ATCC 29212, Porphyromonas gingivalis ATCC 33277, and Actinobacillus actinomycetemcomitans ATCC 29523. All the strains were cultured anaerobically.
(§2) Brain heart infusion (BHI) medium was used for culture of S. mutans, S. sobrinus, L. acidophilus, L. rhamnosus, A. naeslundii, E. faecalis, and A. actinomycetemcomitans, whereas p.g. broth was used for culture of Porphyromonas gingivalis. The standard dilution method in a 96-well microplate was conducted in order to evaluate the antimicrobial efficacy of GAPI. Each well was filled with […] GAPI dilutions. In addition, serial twofold dilutions in concentrations ranging from 1280 μM to 1.25 μM were prepared. A 10 μL bacterial culture (10^6 CFU/mL) was added. Chlorhexidine was used as positive control, and medium was used as negative control. The plates were then anaerobically incubated at 37° C. for 24 h. The absorbance was measured at a wavelength of 660 nm in order to analyze the growth of microorganisms. […] The MBC endpoint was the lowest concentration at which 99.9% of the bacterial population was killed, which thus means the absence of bacteria. The morphology of the bacteria and fungi treated with synthesized peptides was analysed using transmission electron microscopy (TEM) (Philips CM100, Philips/FEI Corporation, Eindhoven, Holland). The sample was prepared following a previous study (Niu et al. 2021d). Copper grids were used to contain the semi-thin sections of bacteria/fungi for examination.

[3] = test system: Actinomyces naeslundii ATCC 12104; format: cell-based
Experimental: as §1, §2

[4] = test system: Lactobacillus acidophilus ATCC 9224; format: cell-based
Experimental: as §1, §2

[5] = test system: Lactobacillus rhamnosus ATCC10863; format: cell-based
Experimental: as §1, §2

[6] = test system: Porphyromonas gingivalis ATCC 33277; format: cell-based
Experimental: as §1, §2

[7] = test system: Streptococcus sobrinus ATCC 33478; format: cell-based
Experimental: as §1, §2

[8] = Stability in human saliva (HPLC); format: in vitro ADME
Experimental: The stability of peptides in human saliva was investigated by testing the remaining peptide concentration via HPLC system (Waters Pacific Pte Ltd, Singapore). The saliva with peptides was mixed and incubated for 0, 15, 30, 45 and 60 min. The test was processed following a previous experimental protocol (Huang et al. 2016).

[9] = test system: Human gingival fibroblast (HGF-1) cells; assay: Biocompatibility, cytotoxicity by Cell Counting Kit-8 Assay; format: cell-based
Experimental: The biocompatibility of GAPI was evaluated by cytotoxicity assay using Cell Counting Kit-8 Assay (CCK-8, Apexbio, MA, USA) (Zhang et al. 2019). Human gingival fibroblast (HGF-1, Otwo Biotech Inc., China) cells (1×10^5/mL) were cultured and treated with GAPI. The cells cultured with the only medium were negative controls. The optical density values indicating the number of viable cells was measured at 450 nm after 24 h of incubation.

[10] = Remineralizing effects on enamel, chemical pH cycling model (SEM-EDS, Micro-CT, XRD); parameters: species or system human; settings: 160 μM twice daily, pH cycling 8 days, n = 8
Experimental: Ten enamel slices were cut from extracted sound human molars. Each slice was separated into four blocks. A total of 40 enamel blocks were prepared. Then the surface of the enamel block was half-covered by an acid-resistant varnish. The exposed half was the experimental surface, and the varnished half was the internal control. Before use, all the enamel blocks were sterilized via autoclave (Niu et al. 2021d; Yu et al. 2018).
The pH-cycling procedure (16 h-demineralization at pH 4.5 and 8 h-remineralization at pH 7.0) was performed to enamel blocks for 8 days. The formula for demineralizing/remineralizing solution was employed from a previous study (Yu et al. 2018). The enamel blocks from the same enamel slice were treated twice daily with 160 μM GAPI (GAPI Group), 160 μM gallic acid (GA Group), 160 μM polyphemusin-I (PI Group), and sterile deionized water (Water Group). All enamel blocks after pH cycling were involved in sequent assessments.
The structure of the enamel surface was examined using SEM (n=8 per group) (Niu et al. 2021d). The elemental analysis of enamel surface was conducted using affiliated energy-dispersive X-ray spectroscopy (EDS). The calcium to phosphorus molar ratio was calculated (Niu et al. 2022). The mineral loss and lesion depth on the enamel blocks were assessed using microcomputed tomography (Micro-CT) (1076, SkyScan, Antwerp, Belgium) (n=8 per group) (Niu et al. 2022). The diffraction patterns of the enamel blocks were evaluated using X-ray diffraction analysis (XRD) (Rigaku SmartLab 9 kW, […]) (n=2 per group) (Yu et al. 2018).

## CC(C)[C@@H]1NC(=O)[C@H](CCCN=C(N)N)NC(=O)[C@H](Cc2ccccc2)NC(=O)[C@@H](NC(=O)[C@H](Cc2c[nH]c3ccccc23)NC(=O)[C@H](CCCN=C(N)N)NC(=O)[C@H](CCCN=C(N)N)NC(=O)c2cc(O)c(O)c(O)c2)CSSC[C@@H](C(=O)N[C@@H](CCCN=C(N)N)C(=O)O)NC(=O)[C@H](CCCCN)NC(=O)[C@H](CCCN=C(N)N)NC(=O)[C@H](Cc2ccc(O)cc2)NC(=O)[C@@H]2CSSC[C@H](NC1=O)C(=O)N[C@@H](Cc1ccc(O)cc1)C(=O)N[C@@H](CCCN=C(N)N)C(=O)NCC(=O)N[C@@H](Cc1ccccc1)C(=O)N2 [GAPI, Gallic-Acid-Polyphemusin-I] (HELM PEPTIDE1{[O=C(c1cc(O)c(O)c(O)c1)[*:2]].R.R.W.C.F.R.V.C.Y.R.G.F.C.Y.R.K.C.R}$PEPTIDE1,PEPTIDE1,5:R3-18:R3|PEPTIDE1,PEPTIDE1,9:R3-14:R3$$$V2.0)
[1]
  minimum inhibitory concentration: 80 µM (≈ 209 µg/mL)
[1]; μM
  MBC/MFC: 40
  MIC: 20
[2]; ATCC 29523
  MBC: 320 µM (≈ 834 µg/mL)
[2]; ATCC 29523, anaerobic, 24 h
  MIC: 160 µM (≈ 417 µg/mL)
[3]; ATCC 12104
  MBC: 640 µM (≈ 1670 µg/mL)
[3]; ATCC 12104, anaerobic, 24 h
  MIC: 160 µM (≈ 417 µg/mL)
[4]; ATCC 9224
  MBC: 80 µM (≈ 209 µg/mL)
[4]; ATCC 9224, anaerobic, 24 h
  MIC: 40 µM (≈ 104 µg/mL)
[5]; ATCC 10863
  MBC: 160 µM (≈ 417 µg/mL)
[5]; ATCC 10863, anaerobic, 24 h
  MIC: 20 µM (≈ 52.1 µg/mL)
[6]; ATCC 33277
  MBC: 640 µM (≈ 1670 µg/mL)
[6]; ATCC 33277, anaerobic, 24 h
  MIC: 320 µM (≈ 834 µg/mL)
[7]; ATCC 33478
  MBC: 320 µM (≈ 834 µg/mL)
[7]; ATCC 33478, anaerobic, 24 h
  MIC: 80 µM (≈ 209 µg/mL)
[8]
  stable in saliva (time): at least 60 min
[8]; human, 15 min, read-out: remaining percentage after incubation in human saliva
  remaining at 0.25 h: 98.9%
[8]; human, 30 min, read-out: remaining percentage after incubation in human saliva
  remaining at 0.5 h: 98.6%
[8]; human, 45 min, read-out: remaining percentage after incubation in human saliva
  remaining at 0.75 h: 96.8%
[8]; human, 60 min, read-out: remaining percentage after incubation in human saliva
  remaining at 1 h: 94.4%
[9]; 80, 160, 320 and 640 μM, HGF-1 cells, 24 h
  optical density values (450 nm, viable cells) versus negative control: no significant difference
[9]; CCK-8, 24 h
  cytotoxicity to HGF-1 cells: low cytotoxicity
[10]; EDS
  Calcium to phosphate molar ratio: 1.81 ± 0.05
[10]; Micro-CT
  Lesion depth: 64 ± 7 μm
  Mineral loss: 0.89 ± 0.20 gHApcm^−3

Reference: patent US20250090441A1, “ANTI-CARIES PEPTIDES WITH ANTIMICROBIAL AND REMINERALIZING PROPERTIES AND METHODS THEREOF” (THE UNIVERSITY OF HONG KONG, priority 2023, published 2025)
